Reference: publication PMC11062899, “De novo development of small cyclic peptides that are orally bioavailable” (Nature Chemical Biology, 2023)
Several values for one entry are separate records, joined by “and”; a condition that tells them apart may be missing. Identical values can stand only once. Like-named read-outs stand apart in the source and are kept apart here.

Assays:
rat α-thrombin = target: T1, rat α-thrombin (Rattus norvegicus, UniProt P18292); experiment: Protease inhibition, Ki for rat α-thrombin (fluorogenic substrate Z-Gly-Gly-Arg-AMC); type: biochemical; conditions: for Rat alpha thrombin inhibition, slope normalized to DMSO: replicates R1-R3
T1 construct: rat α-thrombin (Molecular Innovations) were used at final concentrations of 2 nM and 3 nM; purchased Molecular Innovations
Description: (§1) The inhibition constants (Ki) of cyclic peptides were calculated by measuring thrombin inhibition in the presence of different concentrations of the cyclic peptides. […] Human α-thrombin (Molecular Innovations) and rat α-thrombin (Molecular Innovations) were used at final concentrations of 2 nM and 3 nM, respectively, and fluorogenic substrate (Z-Gly-Gly-Arg-AMC, Bachem) was used at a concentration of 50 μM. Enzymatic activity was determined by measuring fluorescent gain on a Tecan Infinite M200 Pro microplate reader (excitation: 360 nm, emission: 465 nm) or a PHERAstar FSX microplate reader (excitation: 380 nm, emission: 440 nm) for 30 min at 25 °C with a fluorescent readout every 3 min. The two instruments were controlled with Tecan Infinite M200 Pro instrument software (iControl, version 1.12) and PHERAstar FSX software (version 5.70, edition 8), respectively. Protease inhibition was calculated by comparing the enzymatic activity to a control without cyclic peptide.
(§2) Half maximal inhibitory concentration (IC50) values were determined using a four-parameter logistic regression model in GraphPad Prism 9 to fit sigmoidal curves to the acquired data points according to equation (2) below.2 y=b+a−b/1+10^(logIC50−x)p where a and b represent the measured inhibition maximum and minimum, respectively; x is the logarithm of peptide concentration; y is the thrombin activity compared to a control without the cyclic peptide; and p is the Hill coefficient.
(§3) Ki values were calculated using the IC50 and the Cheng–Prusoff equation (equation (3)).3 Ki=IC50/1+S0/Km where Km is the Michaelis–Menten constant of the enzyme for the substrate used in the assay, and [S]0 is the initial substrate concentration.

[1] = Passive artificial membrane permeability (PAMPA);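 as to Permeability% Average: top well sample relative to theoretical equilibrium sample by TIC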
human α-thrombin = human α-thrombin (Homo sapiens, UniProt P00734); experiment: Protease inhibition, Ki for human α-thrombin (fluorogenic substrate Z-Gly-Gly-Arg-AMC); type: biochemical; conditions: for Human alpha thrombin inhibition, slope normalized to DMSO: replicates R1-R3
Description: as §1, §2, §3

[2] = peptide concentration 1.00E+02 uM
[3] = peptide concentration 1.19E-05 uM
[4] = peptide concentration 1.22E-02 uM
[5] = peptide concentration 1.25E+01 uM
[6] = peptide concentration 1.53E-03 uM
[7] = peptide concentration 1.56E+00 uM
[8] = peptide concentration 1.91E-04 uM
[9] = peptide concentration 1.95E-01 uM
[10] = peptide concentration 2.38E-05 uM
[11] = peptide concentration 2.44E-02 uM
[12] = peptide concentration 2.50E+01 uM
[13] = peptide concentration 3.05E-03 uM
[14] = peptide concentration 3.12E+00 uM
[15] = peptide concentration 3.81E-04 uM
[16] = peptide concentration 3.91E-01 uM
[17] = peptide concentration 4.77E-05 uM
[18] = peptide concentration 4.88E-02 uM
[19] = peptide concentration 5.00E+01 uM
[20] = peptide concentration 6.10E-03 uM
[21] = peptide concentration 6.25E+00 uM
[22] = peptide concentration 7.63E-04 uM
[23] = peptide concentration 7.81E-01 uM
[24] = peptide concentration 9.54E-05 uM
[25] = peptide concentration 9.77E-02 uM

## O=C1C[C@H]2CCCN2C(=O)[C@H](Cc2ccccc2)NC(=O)[C@@H](NC(=O)c2ccc(Cl)s2)CC=CCCN1 [compound 38]
Rat α-thrombin; average of R1-R3, read-out: Rat alpha thrombin inhibition, Ki Average
  Ki: 5.05 µM
Rat α-thrombin; [2]
  Rat alpha thrombin inhibition, slope normalized to DMSO: 15.8 and 16.4 and 8.2
Rat α-thrombin; [3]
  Rat alpha thrombin inhibition, slope normalized to DMSO: 106.1 and 100.1 and 101.4
Rat α-thrombin; [4]
  Rat alpha thrombin inhibition, slope normalized to DMSO: 97.4 and 88.6 and 86.5
Rat α-thrombin; [5]
  Rat alpha thrombin inhibition, slope normalized to DMSO: 49.8 and 47.2 and 35.5
Rat α-thrombin; [6]
  Rat alpha thrombin inhibition, slope normalized to DMSO: 108.8 and 100.7 and 95.7
Rat α-thrombin; [7]
  Rat alpha thrombin inhibition, slope normalized to DMSO: 89.9 and 88.6 and 50.7
Rat α-thrombin; [8]
  Rat alpha thrombin inhibition, slope normalized to DMSO: 112.7 and 100.1 and 96.0
Rat α-thrombin; [9]
  Rat alpha thrombin inhibition, slope normalized to DMSO: 101.4 and 102.2 and 81.9
Rat α-thrombin; [10]
  Rat alpha thrombin inhibition, slope normalized to DMSO: 107.4 and 102.3 and 104.3
Rat α-thrombin; [11]
  Rat alpha thrombin inhibition, slope normalized to DMSO: 116.5 and 84.1 and 102.5
Rat α-thrombin; [12]
  Rat alpha thrombin inhibition, slope normalized to DMSO: 36.8 and 26.2 and 18.8
Rat α-thrombin; [13]
  Rat alpha thrombin inhibition, slope normalized to DMSO: 100.6 and 93.4 and 89.7
Rat α-thrombin; [14]
  Rat alpha thrombin inhibition, slope normalized to DMSO: 83.7 and 72.5 and 77.4
Rat α-thrombin; [15]
  Rat alpha thrombin inhibition, slope normalized to DMSO: 105.1 and 100.1 and 102.4
Rat α-thrombin; [16]
  Rat alpha thrombin inhibition, slope normalized to DMSO: 105.0 and 93.1 and 59.9
Rat α-thrombin; [17]
  Rat alpha thrombin inhibition, slope normalized to DMSO: 108.7 and 101.6 and 109.2
Rat α-thrombin; [18]
  Rat alpha thrombin inhibition, slope normalized to DMSO: 113.8 and 100.8 and 93.5
Rat α-thrombin; [19]
  Rat alpha thrombin inhibition, slope normalized to DMSO: 30.2 and 11.5 and 16.5
Rat α-thrombin; [20]
  Rat alpha thrombin inhibition, slope normalized to DMSO: 96.7 and 102.7 and 104.0
Rat α-thrombin; [21]
  Rat alpha thrombin inhibition, slope normalized to DMSO: 71.7 and 61.7 and 68.8
Rat α-thrombin; [22]
  Rat alpha thrombin inhibition, slope normalized to DMSO: 91.7 and 100.9 and 102.6
Rat α-thrombin; [23]
  Rat alpha thrombin inhibition, slope normalized to DMSO: 88.3 and 82.4 and 91.2
Rat α-thrombin; [24]
  Rat alpha thrombin inhibition, slope normalized to DMSO: 111.4 and 103.7 and 104.6
Rat α-thrombin; [25]
  Rat alpha thrombin inhibition, slope normalized to DMSO: 106.1 and 99.6 and 107.1
Rat α-thrombin; single replicates R1-R3, read-out: Rat alpha thrombin inhibition, IC50
  IC50: 11.8 µM and 9.26 µM and 6.34 µM
Rat α-thrombin; single replicates R1-R3, read-out: Rat alpha thrombin inhibition, Ki
  Ki: 6.5 µM and 5.12 µM and 3.51 µM
[1]; 50 μM, 12–18 h, acceptor concentration relative to equilibrium
  PAMPA permeability: % permeability: 32 ± 6%
[1]; 50 μM, 13 h (Fig. 5d)
  Permeability% (single replicates R1–R3): 25.39% and 36.84% and 33.06%
  Permeability% Average: 31.8%
[1]; PAMPA, pH 7.4
  Papp at 50 μM: 3.47 ×10⁻⁶ cm/s
Human α-thrombin; average of R1-R3, read-out: Human alpha thrombin inhibition, Ki Average
  Ki: 13.5 µM
Human α-thrombin; [2]
  Human alpha thrombin inhibition, slope normalized to DMSO: 31.6 and 35.9 and 30.7
Human α-thrombin; [3]
  Human alpha thrombin inhibition, slope normalized to DMSO: 101.3 and 100.2 and 102.3
Human α-thrombin; [4]
  Human alpha thrombin inhibition, slope normalized to DMSO: 84.3 and 92.4 and 75.3
Human α-thrombin; [5]
  Human alpha thrombin inhibition, slope normalized to DMSO: 48.4 and 51.8 and 74.4
Human α-thrombin; [6]
  Human alpha thrombin inhibition, slope normalized to DMSO: 103.9 and 109.7 and 90.7
Human α-thrombin; [7]
  Human alpha thrombin inhibition, slope normalized to DMSO: 99.7 and 78.4 and 78.8
Human α-thrombin; [8]
  Human alpha thrombin inhibition, slope normalized to DMSO: 77.5 and 96.9 and 61.6
Human α-thrombin; [9]
  Human alpha thrombin inhibition, slope normalized to DMSO: 89.1 and 92.2 and 110.9
Human α-thrombin; [10]
  Human alpha thrombin inhibition, slope normalized to DMSO: 100.0 and 95.0 and 108.2
Human α-thrombin; [11]
  Human alpha thrombin inhibition, slope normalized to DMSO: 94.6 and 85.5 and 101.2
Human α-thrombin; [12]
  Human alpha thrombin inhibition, slope normalized to DMSO: 53.9 and 24.7 and 59.2
Human α-thrombin; [13]
  Human alpha thrombin inhibition, slope normalized to DMSO: 85.8 and 106.8 and 92.3
Human α-thrombin; [14]
  Human alpha thrombin inhibition, slope normalized to DMSO: 95.0 and 56.6 and 60.0
Human α-thrombin; [15]
  Human alpha thrombin inhibition, slope normalized to DMSO: 92.8 and 100.9 and 102.1
Human α-thrombin; [16]
  Human alpha thrombin inhibition, slope normalized to DMSO: 92.5 and 76.5 and 47.1
Human α-thrombin; [17]
  Human alpha thrombin inhibition, slope normalized to DMSO: 103.7 and 96.6 and 101.3
Human α-thrombin; [18]
  Human alpha thrombin inhibition, slope normalized to DMSO: 96.6 and 92.9 and 84.5
Human α-thrombin; [19]
  Human alpha thrombin inhibition, slope normalized to DMSO: 32.5 and 38.9 and 43.6
Human α-thrombin; [20]
  Human alpha thrombin inhibition, slope normalized to DMSO: 87.4 and 95.7 and 97.4
Human α-thrombin; [21]
  Human alpha thrombin inhibition, slope normalized to DMSO: 82.6 and 51.0 and 64.7
Human α-thrombin; [22]
  Human alpha thrombin inhibition, slope normalized to DMSO: 95.6 and 106.3 and 100.0
Human α-thrombin; [23]
  Human alpha thrombin inhibition, slope normalized to DMSO: 102.1 and 69.9 and 79.9
Human α-thrombin; [24]
  Human alpha thrombin inhibition, slope normalized to DMSO: 104.1 and 95.0 and 102.4
Human α-thrombin; [25]
  Human alpha thrombin inhibition, slope normalized to DMSO: 95.1 and 96.0 and 81.6
